Experimental data: publication PMC8151276, “An Integrated Approach toward NanoBRET Tracers for Analysis of GPCR Ligand Engagement” (Molecules, 2021)

Columns and labels:
Type in all cases: binding
ADORA2B = biological target: T1, ADORA2B (Homo sapiens, UniProt P29275); experiment: NanoBRET screen HiBiT-ADORA2B in HEK293
T1 construct: purchased Promega (in-house HiBiT-GPCR construct library, NanoBRET)
T1 sequence (P29275 1-332): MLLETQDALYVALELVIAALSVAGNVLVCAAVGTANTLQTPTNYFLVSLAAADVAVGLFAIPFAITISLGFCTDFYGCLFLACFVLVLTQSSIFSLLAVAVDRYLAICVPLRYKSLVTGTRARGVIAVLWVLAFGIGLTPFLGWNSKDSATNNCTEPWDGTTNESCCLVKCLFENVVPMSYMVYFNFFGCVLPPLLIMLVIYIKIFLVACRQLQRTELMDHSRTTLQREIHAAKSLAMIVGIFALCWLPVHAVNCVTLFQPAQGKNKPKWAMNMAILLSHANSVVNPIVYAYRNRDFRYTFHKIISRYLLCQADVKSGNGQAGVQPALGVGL
Experimental: (§1) Each tracer candidate was screened across the entire library of HiBiT-GPCR constructs using NanoBRET as the detection modality. As depicted in Figure 4A, the specificity of interactions was evaluated through decrease in BRET due to competitive displacement of a bound tracer by excess parental compound. Each tracer was analyzed for binding to each HiBiT-GPCR fusion in the absence and in the presence of competing parental compound. Briefly, HEK293 cells were transfected with HiBiT-GPCR constructs diluted into promoterless DNA to reduce expression and maximize translocation to the cell surface. Each tracer candidate was then screened at concentrations of 1 μM and 0.1 μM across cells expressing these fusions. Cells were treated for 1.5 h with tracer either alone or in the presence of 20 μM competing parental compound (i.e., control). BRET was measured upon addition of purified LgBiT and subsequent complementation with HiBiT genetically fused to a GPCR. The specificity of interactions was assessed through a decrease in BRET signal due to competitive displacement of the bound tracer. To further gauge the robustness of these interactions, the fold response over the control (i.e., BRETtracer/BRETcontrol) was calculated. We chose a 1.5-fold response, which translates to ≥7-fold signal over noise as the minimal threshold required to score an interaction as positive. […]. Below we highlight the screening results obtained for our exemplary fluorescent tracers based on Clozapine, Amitriptyline and AZD1283.
(§2) HiBiT-GPCR DNA constructs were diluted in 10 mM Tris pH 8 to a final concentration of 0.01 μg/μL, arrayed in 96-well plates and stored at −20 °C. For transfection, HEK293 cells were suspended in Opti-MEM (without phenol red) supplemented with 2% fetal bovine serum (Seradigm) and 100 units/mL penicillin–streptomycin (Gibco) at a final concentration of 220,000 cells/mL and dispensed into white 96-well plates at 90 μL/well. Subsequent transfections and screens were carried using an Agilent Bravo Automated Liquid Handling Platform. First, the 96-well HiBiT DNA arrays were diluted 25-fold in Opti-MEM (without serum or phenol red) to a final concentration of 0.0004 μg/μL and 20 μL of the diluted DNAs were transferred into new 96-well plates. Next, promoterless carrier DNA (1 μg/μL) was diluted 25-fold (0.04 μg/μL) and then dispensed into the diluted arrays at 20 μL/well. Following brief mixing, Viafect transfection reagent (Promega) diluted 16-fold into Opti-MEM was dispensed into the plates at 40 μL/well. After mixing by pipetting, plates were incubated for 10 min on the pipetting station deck. The DNA-transfection reagent complexes were then added to plates containing cells. To facilitate the screen, 10 μL of DNA-transfection reagent complexes were added in duplicates to the top 4 and bottom 4 rows, resulting in two identical 48-well arrays per plate. Plates with transfected cells were incubated for 18–20 h at 37 °C/5% CO2. A screen of each tracer across the entire library using two different concentrations requires duplicate plates of transfected cells. Depending on the number of tracers being screened, transfections can be scaled up using the same ratios. The next day, for each tracer, four 20× screening solutions in tracer dilution buffer (Promega) were prepared: two duplicates at final concentration of 20 μM and two duplicates at a final concentration of 2 μM. A competing unmodified compound was added to one of each duplicate at a final concentration of 400 μM. The four resulting solutions were diluted 4-fold in Opti-MEM without serum or phenol red to generate 5× solutions (5 µM and 0.5 µM tracer +/− 100 μM competing compound). To screen the library, a BioTek MultiFlo FX liquid dispenser was used to dispense 22.5 µL of tracer solution to the top 4 rows and 22.5 µL tracer + competing compound solution to the 4 bottom rows. Plates were briefly mixed on an orbital shaker and incubated for 1.5 h at room temperature. […]

AGTR1 = biological target: T2, AGTR1 (Homo sapiens, UniProt P30556); experiment: NanoBRET screen HiBiT-AGTR1 in HEK293
T2 construct: purchased Promega (in-house HiBiT-GPCR construct library, NanoBRET)
T2 sequence (P30556 1-359): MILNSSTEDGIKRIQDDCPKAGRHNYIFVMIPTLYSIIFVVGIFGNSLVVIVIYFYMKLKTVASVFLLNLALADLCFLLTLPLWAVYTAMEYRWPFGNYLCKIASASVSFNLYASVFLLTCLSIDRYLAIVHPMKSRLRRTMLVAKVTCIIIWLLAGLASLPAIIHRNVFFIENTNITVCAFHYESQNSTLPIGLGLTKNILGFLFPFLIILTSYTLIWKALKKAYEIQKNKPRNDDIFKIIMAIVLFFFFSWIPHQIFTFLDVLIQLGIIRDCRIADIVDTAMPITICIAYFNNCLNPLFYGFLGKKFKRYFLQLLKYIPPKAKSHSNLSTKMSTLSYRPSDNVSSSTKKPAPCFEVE
Experimental: as §1, §2

CCR4 = biological target: T3, CCR4 (Homo sapiens, UniProt P51679); experiment: NanoBRET screen HiBiT-CCR4 in HEK293
T3 construct: purchased Promega (in-house HiBiT-GPCR construct library, NanoBRET)
T3 sequence (P51679 1-360): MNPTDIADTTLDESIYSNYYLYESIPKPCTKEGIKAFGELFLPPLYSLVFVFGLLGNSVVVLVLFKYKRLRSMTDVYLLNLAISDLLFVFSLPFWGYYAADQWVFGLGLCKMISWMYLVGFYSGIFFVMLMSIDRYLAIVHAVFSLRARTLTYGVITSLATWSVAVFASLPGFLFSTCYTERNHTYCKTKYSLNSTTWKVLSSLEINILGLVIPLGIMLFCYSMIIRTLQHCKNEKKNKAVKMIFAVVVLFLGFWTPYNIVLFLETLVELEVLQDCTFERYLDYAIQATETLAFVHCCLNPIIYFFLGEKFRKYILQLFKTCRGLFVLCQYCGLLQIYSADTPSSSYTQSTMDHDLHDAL
Experimental: as §1, §2

FZD8 = biological target: T4, FZD8 (Homo sapiens, UniProt Q9H461); experiment: NanoBRET screen HiBiT-FZD8 in HEK293; settings: FZD8
T4 construct: purchased Promega (in-house HiBiT-GPCR construct library, NanoBRET)
Experimental: as §1, §2

OPRL1 = biological target: T5, OPRL1 (Homo sapiens, UniProt P41146); experiment: NanoBRET screen HiBiT-OPRL1 in HEK293
T5 construct: purchased Promega (in-house HiBiT-GPCR construct library, NanoBRET)
Experimental: as §1, §2

MCHR1 = biological target: T6, MCHR1 (Homo sapiens, UniProt Q99705); experiment: NanoBRET screen HiBiT-MCHR1 in HEK293
T6 construct: purchased Promega (in-house HiBiT-GPCR construct library, NanoBRET)
Experimental: as §1, §2

T4 sequence (Q9H461 28-694): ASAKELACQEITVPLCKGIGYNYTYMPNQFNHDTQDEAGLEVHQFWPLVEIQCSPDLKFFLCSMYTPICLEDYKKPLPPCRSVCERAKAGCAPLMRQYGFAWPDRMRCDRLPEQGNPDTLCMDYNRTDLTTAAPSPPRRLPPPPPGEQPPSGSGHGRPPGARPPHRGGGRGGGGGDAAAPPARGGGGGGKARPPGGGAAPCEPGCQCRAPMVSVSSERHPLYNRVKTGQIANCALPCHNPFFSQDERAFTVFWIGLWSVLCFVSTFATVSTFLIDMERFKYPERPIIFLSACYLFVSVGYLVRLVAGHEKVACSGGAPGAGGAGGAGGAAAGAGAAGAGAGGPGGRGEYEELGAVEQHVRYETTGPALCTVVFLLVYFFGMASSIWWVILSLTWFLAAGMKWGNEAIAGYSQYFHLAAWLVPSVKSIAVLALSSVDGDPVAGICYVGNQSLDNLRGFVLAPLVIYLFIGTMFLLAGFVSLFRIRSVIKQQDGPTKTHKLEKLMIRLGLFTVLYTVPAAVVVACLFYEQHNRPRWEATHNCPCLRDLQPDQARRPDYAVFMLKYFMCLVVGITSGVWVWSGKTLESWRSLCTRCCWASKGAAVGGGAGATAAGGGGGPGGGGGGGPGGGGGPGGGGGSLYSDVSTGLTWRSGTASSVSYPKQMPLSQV
T5 sequence (P41146 whole entry): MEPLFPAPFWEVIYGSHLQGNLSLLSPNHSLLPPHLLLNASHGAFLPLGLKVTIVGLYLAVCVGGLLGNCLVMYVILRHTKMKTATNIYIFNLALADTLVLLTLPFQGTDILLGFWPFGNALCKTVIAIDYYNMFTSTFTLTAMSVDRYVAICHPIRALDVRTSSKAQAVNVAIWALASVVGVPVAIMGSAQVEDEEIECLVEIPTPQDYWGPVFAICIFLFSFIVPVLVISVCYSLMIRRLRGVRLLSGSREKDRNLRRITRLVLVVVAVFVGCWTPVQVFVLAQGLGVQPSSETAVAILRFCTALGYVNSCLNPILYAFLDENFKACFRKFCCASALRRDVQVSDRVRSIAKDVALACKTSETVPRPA
T6 sequence (Q99705 whole entry): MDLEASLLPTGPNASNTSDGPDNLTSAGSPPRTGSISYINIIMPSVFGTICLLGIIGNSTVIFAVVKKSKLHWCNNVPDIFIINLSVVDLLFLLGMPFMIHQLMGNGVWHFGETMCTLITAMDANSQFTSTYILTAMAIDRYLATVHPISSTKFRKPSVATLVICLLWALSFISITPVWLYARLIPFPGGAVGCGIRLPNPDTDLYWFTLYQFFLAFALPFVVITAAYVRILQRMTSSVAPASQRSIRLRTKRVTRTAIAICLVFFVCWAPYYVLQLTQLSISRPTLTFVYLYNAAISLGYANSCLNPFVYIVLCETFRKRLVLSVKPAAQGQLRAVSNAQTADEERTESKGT

SMILES: CC(C)N(CC[C@H](c1ccccc1)c1cc(CCNC(=O)c2ccc(CNC(=O)CCc3ccc4n3[B-](F)(F)[N+]3=C(c5ccc[nH]5)C=CC3=C4)cc2)ccc1O)C(C)C [Tolterodine-BZ-NB590]
- NanoBRET Fold Response (ADORA2B; ADORA2B, tracer 0.1μM): 0.67
- NanoBRET Fold Response (ADORA2B; ADORA2B, tracer 1μM): 0.73
- NanoBRET Fold Response (AGTR1; AGTR1, tracer 0.1μM): 1.06
- NanoBRET Fold Response (AGTR1; AGTR1, tracer 1μM): 1.00
- NanoBRET Fold Response (CCR4; CCR4, tracer 0.1μM): 0.95
- NanoBRET Fold Response (CCR4; CCR4, tracer 1μM): 0.86
- NanoBRET Fold Response (FZD8; tracer 0.1μM): 1.00
- NanoBRET Fold Response (FZD8; tracer 1μM): 1.02
- NanoBRET Fold Response (OPRL1; OPRL1, tracer 0.1μM): 0.92
- NanoBRET Fold Response (OPRL1; OPRL1, tracer 1μM): 0.88
- NanoBRET Fold Response (MCHR1; MCHR1, tracer 0.1μM): 0.83
- NanoBRET Fold Response (MCHR1; MCHR1, tracer 1μM): 0.95

SMILES: O=C(CCOCCOCCOCCOCCNC(=O)CCc1ccc2n1[B-](F)(F)[N+]1=C(c3ccc[nH]3)C=CC1=C2)NCCCN1CCN(C2=Nc3ccccc3Oc3ccc(Cl)cc32)CC1 [Loxapine-a-2-NB590]
- NanoBRET Fold Response (ADORA2B; ADORA2B, tracer 0.1μM): 1.41
- NanoBRET Fold Response (ADORA2B; ADORA2B, tracer 1μM): 0.62
- NanoBRET Fold Response (AGTR1; AGTR1, tracer 0.1μM): 0.96
- NanoBRET Fold Response (AGTR1; AGTR1, tracer 1μM): 1.08
- NanoBRET Fold Response (CCR4; CCR4, tracer 0.1μM): 1.03
- NanoBRET Fold Response (CCR4; CCR4, tracer 1μM): 1.19
- NanoBRET Fold Response (FZD8; tracer 0.1μM): 0.95
- NanoBRET Fold Response (FZD8; tracer 1μM): 1.01
- NanoBRET Fold Response (OPRL1; OPRL1, tracer 0.1μM): 1.00
- NanoBRET Fold Response (OPRL1; OPRL1, tracer 1μM): 0.89
- NanoBRET Fold Response (MCHR1; MCHR1, tracer 0.1μM): 1.03
- NanoBRET Fold Response (MCHR1; MCHR1, tracer 1μM): 1.20

SMILES: CN(C)CCC=C1c2ccccc2CCc2ccc(C(=O)NCCNC(=O)CCOCCOCCOCCOCCNC(=O)CCc3ccc4n3[B-](F)(F)[N+]3=C(c5ccc[nH]5)C=CC3=C4)cc21 [Amitriptyline-a-2-NB590]
- NanoBRET Fold Response (ADORA2B; tracer at 0.1μM): 1.10
- NanoBRET Fold Response (ADORA2B; tracer at 1μM): 0.93
- NanoBRET Fold Response (AGTR1; tracer at 0.1μM): 1.04
- NanoBRET Fold Response (AGTR1; tracer at 1μM): 1.00
- NanoBRET Fold Response (CCR4; tracer at 0.1μM): 0.92
- NanoBRET Fold Response (CCR4; tracer at 1μM): 1.01
- NanoBRET Fold Response (OPRL1; tracer at 0.1μM): 1.01
- NanoBRET Fold Response (OPRL1; tracer at 1μM): 0.95
- NanoBRET Fold Response (MCHR1; tracer at 0.1μM): 1.01
- NanoBRET Fold Response (MCHR1; tracer at 1μM): 1.09

SMILES: CN(CCC=C1c2ccccc2CCc2ccccc21)C(=O)CCOCCOCCOCCOCCNC(=O)CCc1ccc2n1[B-](F)(F)[N+]1=C(c3ccc[nH]3)C=CC1=C2 [Amitriptyline-e-2-NB590]
- NanoBRET Fold Response (AGTR1; tracer at 1μM): 1.02
- NanoBRET Fold Response (CCR4; tracer at 1μM): 0.97
- NanoBRET Fold Response (OPRL1; tracer at 1μM): 1.10
